According to patent US9168317B2, “In vivo imaging method of mood disorders” (GE Healthcare Limited, priority 2010, dated 2015):
pKi: −log10 of the molar value. Read-outs that look alike come from different tables or passages of the source.

Tests used:
[1] = target: T1, Wistar rat heart PBR (Rattus norvegicus, UniProt P16257); experiment: In vitro potency assay: competition against 0.3 nM [3H]PK-11195 binding
T1 construct: from tissue; host or cells: Wistar rat heart
Procedure: Non-radioactive analogues of in vivo imaging agents of the invention were tested.
Each test compound (dissolved in 50 mM Tris-HCl, pH 7.4, 10 mM MgCl2 containing 1% DMSO) competed for binding to Wistar rat heart PBR against 0.3 nM [^3H] […] The reaction, was carried out in 50 mM Tris-HCl, pH 7.4 10 mM MgCl2 for 15 minutes at 25° C.

[2] = In vivo biodistribution method; conditions: for Brain 2 min / OB 30 min: adult male Wistar rats, 1-3 MBq via lateral tail vein; for Brain 2 min: 2 min after injection; for OB 30 min: olfactory bulb
Procedure: Imaging agents of the invention were tested in an in vivo biodistribution model.
Adult male Wistar rats (200-300 g) were injected with 1-3 MBq of test compound via the lateral tail vein. At 2, 10, 30 or 60 min (n=3) after injection, rats were euthanised and tissues or fluids were sampled for radioactive measurement on a gamma counter.

| Structure (SMILES) | pKi ([1]; non-radioactive analogues, vs 0.3 nM [3H]PK-11195, 50 mM Tris-HCl pH 7.4, 10 mM MgCl2, 15 minutes at 25° C., read-out: Ki) | pKi [1] | Brain 2 min [2] | OB 30 min ([2]; 30 min after injection) | OB:Str 30 min ([2]; ratio olfactory bulb:striatum, 30 min after injection, Wistar rats) |
| --- | --- | --- | --- | --- | --- |
| CCN(CC)C(=O)C1CCCc2c1c1c(OC)cccc1n2CC[18F] (centres unmarked) [compound 5] | 8.83 |  |  |  |  |
| O=C(C1CCCc2c1c1ccccc1n2CC[18F])N1CCCCC1 (centres unmarked) [compound 6] |  | 7.74 |  |  |  |
| CN(Cc1ccccc1)C(=O)C1CCCc2c1c1ccccc1n2CC[18F] (centres unmarked) [compound 7] |  | 8.90 | 0.55 % ID/g | 0.34 % ID/g | 3.40 |
| CCN(CC)C(=O)C1CCCc2c1c1cc(F)ccc1n2CC[18F] (centres unmarked) [compound 9] |  | 8.42 | 0.56 % ID/g | 0.41 % ID/g |  |
| CCN(CC)C(=O)C1CCCc2c1c1c(F)cccc1n2CC[18F] (centres unmarked) [compound 10] |  |  | 0.50 % ID/g | 0.51 % ID/g |  |
